Reference: US20240366487A1, “ANTI-AGING COMPOSITIONS FOR SENSITIVE SKIN” (Baek Clinical Inc., priority 2023, published 2024)

Tested on: skin of human subjects
Test: Human Repeat Insult Patch Testing (HRIPT)
Format: in vivo
Conditions: positive control, 71 subjects
Description: The study duration was 6 weeks and 71 male and female subjects, ranging in age from 18 to 65, completed the study. Subjects were requested to bathe or wash as usual before arrival at the facility Patches containing the test material were then affixed directly to the skin of the intrascapular regions of the back, to the right or left of the midline and subjects were dismissed with instructions not to wet or expose the test area to direct sunlight. Patches remained in place for 48 hours after the first application. Subjects were instructed not to remove the patches prior to their 48-hour scheduled visit, thereafter, subjects were instructed to remove patches 24 hours after application for the remainder of the study. […] Prior to each reapplication, the test sites were evaluated by trained laboratory personnel. Following a 10-14 day rest period a retest/challenge dose was applied once to a previously unexposed test site. Test sites were evaluated by trained laboratory personnel 48 and 96 hours after application. In the event of a reaction, the area of erythema and edema were measured. Edema is estimated by the evaluation of the skin with respect to the contour of the unaffected normal skin. Subjects were instructed to report any delayed reactions that might occur after the final reading.

Structure (SMILES): CCCCCCCCCCCCOS(=O)(=O)[O-].[Na+] [1.0% Sodium Lauryl Sulfate Solution, Sodium Lauryl Sulfate]
- subjects with a Grade 1 reaction: 3 subjects
- subjects with a Grade 2 reaction: 1 subject
